Assays:
PKN1 = assay: KINOMEscan; assay type: binding; details: 1000 nM
BRSK1 = assay: KINOMEscan; assay type: binding; details: 1000 nM
BMPR2 = assay: KINOMEscan; assay type: binding; details: 1000 nM
KIT(L576P) = assay: KINOMEscan; assay type: binding; details: 1000 nM
MLK2 = assay: KINOMEscan; assay type: binding; details: 1000 nM
DDR1 = assay: KINOMEscan; assay type: binding; details: 1000 nM
CAMKK1 = assay: KINOMEscan; assay type: binding; details: 1000 nM
BRSK2 = assay: KINOMEscan; assay type: binding; details: 1000 nM
PLK3 = assay: KINOMEscan; assay type: binding; details: 1000 nM
[1] = test system: TYK2(JH2domain-pseudokinase); assay: KINOMEscan; assay type: binding; details: 1000 nM
AMPK-alpha2 = assay: KINOMEscan; assay type: binding; details: 1000 nM
DLK = assay: KINOMEscan; assay type: binding; details: 1000 nM
PIK3CA(E542K) = assay: KINOMEscan; assay type: binding; details: 1000 nM
FER = assay: KINOMEscan; assay type: binding; details: 1000 nM
[2] = test system: JAK3(JH1domain-catalytic); assay: KINOMEscan; assay type: binding; details: 1000 nM
U2932 = assay: anti-proliferative CellTiter-Glo assay; assay type: cell-based; details: Homo sapiens, U2932, 72 h
Procedure: (§1) Cell viability was measured using the CellTiter–Glo assay (Promega, USA) according to the manufacturer’s instructions, and […] was measured in a Bio-red Microplate reader (Bio-Red, USA).

SU-DHL-6 = assay: anti-proliferative CellTiter-Glo assay; assay type: cell-based; details: Homo sapiens, SU-DHL-6, 72 h
Procedure: as §1

SU-DHL-2 = assay: anti-proliferative CellTiter-Glo assay; assay type: cell-based; details: Homo sapiens, SU-DHL-2, 72 h
Procedure: as §1

TMD8 = assay: anti-proliferative CellTiter-Glo assay; assay type: cell-based; details: Homo sapiens, TMD8, 72 h
Procedure: as §1

REC-1 = assay: anti-proliferative CellTiter-Glo assay; assay type: cell-based; details: Homo sapiens, Rec1; REC-1, 72 h
Procedure: as §1

WSU-DLCL2 = assay: anti-proliferative CellTiter-Glo assay; assay type: cell-based; details: Homo sapiens, WSUDLCL2; WSU-DLCL2, 72 h
Procedure: as §1

JEKO-1 = assay: anti-proliferative CellTiter-Glo assay; assay type: cell-based; details: Homo sapiens, JeKo-1, 72 h
Procedure: as §1

TLK2 = assay: KINOMEscan; assay type: binding; details: 1000 nM
PAK7 = assay: KINOMEscan; assay type: binding; details: 1000 nM
CSNK1A1 = assay: KINOMEscan; assay type: binding; details: 1000 nM
PRKD1 = assay: KINOMEscan; assay type: binding; details: 1000 nM
PIK3CA(H1047Y) = assay: KINOMEscan; assay type: binding; details: 1000 nM
PRKG1 = assay: KINOMEscan; assay type: binding; details: 1000 nM
PFTK1 = assay: KINOMEscan; assay type: binding; details: 1000 nM
MEK5 = assay: KINOMEscan; assay type: binding; details: 1000 nM
RIPK1 = assay: KINOMEscan; assay type: binding; details: 1000 nM
YANK2 = assay: KINOMEscan; assay type: binding; details: 1000 nM
PKMYT1 = assay: KINOMEscan; assay type: binding; details: 1000 nM
GSK3B = assay: KINOMEscan; assay type: binding; details: 1000 nM
WNK1 = assay: KINOMEscan; assay type: binding; details: 1000 nM
PKNB(M.tuberculosis) = assay: KINOMEscan; assay type: binding; details: 1000 nM
FLT3(ITD,F691L) = assay: KINOMEscan; assay type: binding; details: 1000 nM
NDR2 = assay: KINOMEscan; assay type: binding; details: 1000 nM
FRK = assay: KINOMEscan; assay type: binding; details: 1000 nM
MAP3K4 = assay: KINOMEscan; assay type: binding; details: 1000 nM
CDKL5 = assay: KINOMEscan; assay type: binding; details: 1000 nM
TGFBR2 = assay: KINOMEscan; assay type: binding; details: 1000 nM
[3] = test system: ABL1(E255K)-phosphorylated; assay: KINOMEscan; assay type: binding; details: 1000 nM
STK39 = assay: KINOMEscan; assay type: binding; details: 1000 nM
RIPK4 = assay: KINOMEscan; assay type: binding; details: 1000 nM
NEK3 = assay: KINOMEscan; assay type: binding; details: 1000 nM
LOK = assay: KINOMEscan; assay type: binding; details: 1000 nM
CDC2L1 = assay: KINOMEscan; assay type: binding; details: 1000 nM
SBK1 = assay: KINOMEscan; assay type: binding; details: 1000 nM
NEK2 = assay: KINOMEscan; assay type: binding; details: 1000 nM
[4] = test system: ABL1(F317L)-phosphorylated; assay: KINOMEscan; assay type: binding; details: 1000 nM
[5] = test system: ABL1(F317I)-phosphorylated; assay: KINOMEscan; assay type: binding; details: 1000 nM
INSR = assay: KINOMEscan; assay type: binding; details: 1000 nM
MAP3K15 = assay: KINOMEscan; assay type: binding; details: 1000 nM
ERK4 = assay: KINOMEscan; assay type: binding; details: 1000 nM
MAPKAPK5 = assay: KINOMEscan; assay type: binding; details: 1000 nM

SMILES: C=CC(=O)Nc1cc(Nc2cc(-c3cccc(NC(=O)c4cc5c(s4)CCCC5)c3C)cn(C)c2=O)ccc1N1CCN(CC)CC1 [CHMFL-BTK-85]
- Percent Control (PKN1): 70%
- Percent Control (BRSK1): 100%
- Percent Control (BMPR2): 100%
- Percent Control (KIT(L576P)): 79%
- Percent Control (MLK2): 90%
- Percent Control (DDR1): 100%
- Percent Control (CAMKK1): 75%
- Percent Control (BRSK2): 99%
- Percent Control (PLK3): 99%
- Percent Control [1]: 100%
- Percent Control (AMPK-alpha2): 89%
- Percent Control (DLK): 100%
- Percent Control (PIK3CA(E542K)): 99%
- Percent Control (FER): 83%
- Percent Control [2]: 80%
- GI50 (U2932): 800 ± 96 nM
- GI50 (SU-DHL-6): 970 ± 220 nM
- GI50 (SU-DHL-2): 570 ± 350 nM
- GI50 (TMD8): 17 ± 4 nM
- GI50 (REC-1): 28 ± 7 nM
- GI50 (WSU-DLCL2): 1400 ± 210 nM
- GI50 (JEKO-1): 1100 ± 240 nM
- Percent Control (TLK2): 100%
- Percent Control (PAK7): 82%
- Percent Control (CSNK1A1): 100%
- Percent Control (PRKD1): 100%
- Percent Control (PIK3CA(H1047Y)): 83%
- Percent Control (PRKG1): 93%
- Percent Control (PFTK1): 80%
- Percent Control (MEK5): 100%
- Percent Control (RIPK1): 97%
- Percent Control (YANK2): 77%
- Percent Control (PKMYT1): 63%
- Percent Control (GSK3B): 100%
- Percent Control (WNK1): 100%
- Percent Control (PKNB(M.tuberculosis)): 88%
- Percent Control (FLT3(ITD,F691L)): 77%
- Percent Control (NDR2): 34%
- Percent Control (FRK): 19%
- Percent Control (MAP3K4): 92%
- Percent Control (CDKL5): 100%
- Percent Control (TGFBR2): 100%
- Percent Control [3]: 85%
- Percent Control (STK39): 100%
- Percent Control (RIPK4): 100%
- Percent Control (NEK3): 80%
- Percent Control (LOK): 100%
- Percent Control (CDC2L1): 100%
- Percent Control (SBK1): 100%
- Percent Control (NEK2): 99%
- Percent Control [4]: 100%
- Percent Control [5]: 100%
- Percent Control (INSR): 96%
- Percent Control (MAP3K15): 96%
- Percent Control (ERK4): 100%
- Percent Control (MAPKAPK5): 100%
